We go through 18 compounds from PubChem BioAssay AID328 (DTP/NCI, 2004).

“And” between values parts separate entries of the source, which are not always exact repeats. Equal entries are not always repeated. Toxic doses and inconclusive results are not listed.

This assay relates to BDF1 mice, P388 leukemia ip, median survival T/C. The assay is described as follows: NCI In Vivo Anticancer Drug Screen. Data for tumor model P388 Leukemia (intraperitoneal) in B6D2F1 (BDF1) mice. The conditions noted are these: endpoint: median survival time, higher = longer survival. In a few lines:
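Transplantable tumour in mice; compound vs vehicle dosing; survival scored; ratio of treated to control reported.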

[1] abbreviates: dose: 50.0 mg/kg/injection, schedule: Q01DX009 (ip), vehicle: saline with Tween-80.
The mark [2] stands for this setting: dose: 100.0 mg/kg/injection, schedule: Q01DX009 (ip), vehicle: saline with Tween-80.
Where [3] appears, read: dose: 200.0 mg/kg/injection, schedule: Q01DX009 (ip), vehicle: saline with Tween-80.
Where [4] appears, read: dose: 12.5 mg/kg/injection, schedule: Q01DX009 (ip), vehicle: saline with Tween-80.
The mark [5] stands for this setting: dose: 15.0 mg/kg/injection, schedule: Q01DX009 (ip), vehicle: saline with Tween-80.
Where [6] appears, read: dose: 30.0 mg/kg/injection, schedule: Q01DX009 (ip), vehicle: saline with Tween-80.
[7] abbreviates: dose: 60.0 mg/kg/injection, schedule: Q01DX009 (ip), vehicle: saline with Tween-80.
The mark [8] stands for this setting: dose: 100.0 mg/kg/injection, schedule: Q04DX003 (ip), vehicle: saline with Tween-80.
The mark [9] stands for this setting: dose: 100.0 mg/kg/injection, schedule: Q04DX003 (ip), vehicle: saline.
[10] abbreviates: dose: 200.0 mg/kg/injection, schedule: Q04DX003 (ip), vehicle: saline.
[11] abbreviates: dose: 200.0 mg/kg/injection, schedule: Q04DX003 (ip), vehicle: saline with Tween-80.
Setting [12] is: dose: 400.0 mg/kg/injection, schedule: Q04DX003 (ip), vehicle: saline with Tween-80.
Setting [13] is: dose: 50.0 mg/kg/injection, schedule: Q04DX003 (ip), vehicle: saline.

With `CC(C)(C)[N]1[Si](C)(C)[N](C(C)(C)C)[Sn]12[S][Sn]1([S]2)[N](C(C)(C)C)[Si](C)(C)[N]1C(C)(C)C`, the T/C was 100 % of control under setting [1], 94 % of control under setting [2] and 86 % of control under setting [3].

For the compound `CC(C)=CCC/C(C)=C/CN1C(=O)C=CC1=O`, the T/C is 94 % of control (dose: 0.39 mg/kg/injection, schedule: Q01DX009 (ip), vehicle: water); 100 % of control (dose: 0.78 mg/kg/injection, schedule: Q01DX009 (ip), vehicle: water); 112 % of control (dose: 1.56 mg/kg/injection, schedule: Q01DX009 (ip), vehicle: water); 112 % of control (dose: 3.12 mg/kg/injection, schedule: Q01DX009 (ip), vehicle: water); 111 % of control (dose: 6.25 mg/kg/injection, schedule: Q01DX009 (ip), vehicle: water); 89 % of control (dose: 12.5 mg/kg/injection, schedule: Q01DX009 (ip), vehicle: water).

As for `C=C1N(C)c2ccccc2C1(C)C`, the T/C (dose: 1.47 mg/kg/injection, schedule: Q01DX009 (ip), vehicle: saline with Tween-80) was 104 % of control; the T/C (dose: 2.95 mg/kg/injection, schedule: Q01DX009 (ip), vehicle: saline with Tween-80) was 118 % of control; the T/C (dose: 5.9 mg/kg/injection, schedule: Q01DX009 (ip), vehicle: saline with Tween-80) was 122 % of control.

For the compound `OCC#CC#CCO`, the T/C by setting is: (dose: 25.0 mg/kg/injection, schedule: Q01DX001 (ip), vehicle: saline) 95 % of control; (dose: 50.0 mg/kg/injection, schedule: Q01DX001 (ip), vehicle: saline) 118 % of control; (dose: 100.0 mg/kg/injection, schedule: Q01DX001 (ip), vehicle: saline) 100 % of control and 109 % of control.

On to `S=c1[nH]ncn1-c1ccccc1`, for which the T/C by setting is: (dose: 6.25 mg/kg/injection, schedule: Q01DX009 (ip), vehicle: saline with Tween-80) 99 % of control; under setting [4], 99 % of control; (dose: 25.0 mg/kg/injection, schedule: Q01DX009 (ip), vehicle: saline with Tween-80) 99 % of control; under setting [1], 96 % of control.

Consider `O=[N+]([O-])c1ccc(N2CCCCC2)c2c1no[n+]2[O-]`, for which the T/C under setting [5] is 88 % of control, the T/C under setting [6] was 93 % of control and the T/C under setting [7] is 95 % of control.

On to `CCCCOC(=O)c1ccc(NC(=O)Nc2ccccc2OC)cc1`, for which, under setting [8], the T/C was 100 % of control.

With `COC(=O)C1(C)CSCCC1=O` (stereo not drawn), the T/C (dose: 100.0 mg/kg/injection, schedule: Q01DX009 (ip), vehicle: saline) was 105 % of control; the T/C under setting [9] is 100 % of control; the T/C (dose: 200.0 mg/kg/injection, schedule: Q01DX009 (ip), vehicle: saline) was 105 % of control; the T/C under setting [10] is 100 % of control; the T/C (dose: 400.0 mg/kg/injection, schedule: Q01DX009 (ip), vehicle: saline) is 95 % of control; the T/C (dose: 400.0 mg/kg/injection, schedule: Q04DX003 (ip), vehicle: saline) is 95 % of control.

In the case of `ON=C(CSCc1ccccc1)CSCc1ccccc1`, the T/C by setting is: (dose: 50.0 mg/kg/injection, schedule: Q04DX003 (ip), vehicle: saline with Tween-80) 99 % of control; under setting [8], 103 % of control; under setting [11], 88 % of control; under setting [12], 95 % of control.

On to `O=[N+]([O-])c1ccc(N2CCCCCC2)c2c1no[n+]2[O-]`, for which the T/C is, setting by setting: under setting [5], 90 % of control; under setting [6], 95 % of control; under setting [7], 95 % of control.

`Cc1cc(C(=O)c2ccccn2)c2cccc(C(F)(F)F)c2n1`: the T/C is 95 % of control under setting [4]; 95 % of control under setting [8]; 86 % of control under setting [3]; 90 % of control under setting [11]; 90 % of control under setting [12].

Take `O=C(Nc1ccccc1)c1c(O)[nH]c(=S)[nH]c1=O`: the T/C (dose: 50.0 mg/kg/injection, schedule: Q01DX005 (ip), vehicle: saline with Tween-80) was 194 % of control.

With `CO[C@H]1Nc2c(ccc(C)c2O)C(=O)N2C=C(/C=C/C(N)=O)C[C@@H]12`, the T/C was 230 % of control (dose: 0.02 mg/kg/injection, schedule: Q01DX010 (ip), vehicle: carboxymethylcellulose (CMC)); 230 % of control (dose: 0.05 mg/kg/injection, schedule: Q01DX010 (ip), vehicle: carboxymethylcellulose (CMC)); 242 % of control (dose: 0.08 mg/kg/injection, schedule: Q01DX009 (ip), vehicle: Klucel (hydroxypropylcellulose) (HPC)); 150 % of control (dose: 0.08 mg/kg/injection, schedule: Q01DX009 (ip), vehicle: saline); 210 % of control (dose: 0.1 mg/kg/injection, schedule: Q01DX010 (ip), vehicle: carboxymethylcellulose (CMC)); 168 % of control (dose: 0.12 mg/kg/injection, schedule: Q01DX009 (ip), vehicle: saline with Tween-80). The T/C (dose: 0.18 mg/kg/injection, schedule: Q01DX009 (ip), vehicle: Klucel (hydroxypropylcellulose) (HPC)) was 238 % of control; the T/C (dose: 0.2 mg/kg/injection, schedule: Q01DX010 (ip), vehicle: carboxymethylcellulose (CMC)) was 185 % of control; the T/C (dose: 0.25 mg/kg/injection, schedule: Q01DX010 (ip), vehicle: saline) was 90 % of control; the T/C (dose: 151.0 micrograms/kg/injection, schedule: Q04DX003 (ip), vehicle: saline + alcohol) was 186 % of control; the T/C (dose: 216.0 micrograms/kg/injection, schedule: Q04DX003 (ip), vehicle: saline + alcohol) is 177 % of control and 189 % of control; the T/C (dose: 252.0 micrograms/kg/injection, schedule: Q04DX003 (ip), vehicle: saline + alcohol) is 208 % of control. The T/C runs as follows: (dose: 360.0 micrograms/kg/injection, schedule: Q04DX003 (ip), vehicle: saline + alcohol) 183 % of control and 196 % of control; (dose: 420.0 micrograms/kg/injection, schedule: Q04DX003 (ip), vehicle: saline + alcohol) 215 % of control; (dose: 600.0 micrograms/kg/injection, schedule: Q04DX003 (ip), vehicle: saline + alcohol) 94 % of control and 112 % of control.

On to `CC(C)OC(CCC#N)c1ccccc1` (stereo not drawn), for which the T/C was 100 % of control (dose: 100.0 mg/kg/injection, schedule: Q01DX009 (ip), vehicle: Klucel (hydroxypropylcellulose) (HPC)); 95 % of control (dose: 100.0 mg/kg/injection, schedule: Q04DX003 (ip), vehicle: Klucel (hydroxypropylcellulose) (HPC)); 100 % of control (dose: 200.0 mg/kg/injection, schedule: Q01DX009 (ip), vehicle: Klucel (hydroxypropylcellulose) (HPC)); 104 % of control (dose: 200.0 mg/kg/injection, schedule: Q04DX003 (ip), vehicle: Klucel (hydroxypropylcellulose) (HPC)); 109 % of control (dose: 400.0 mg/kg/injection, schedule: Q04DX003 (ip), vehicle: Klucel (hydroxypropylcellulose) (HPC)).

As for `CC(=O)[C@H]1CC[C@H]2[C@@H]3C[C@H](F)C4=CC(=O)CC[C@]4(C)[C@H]3C(=O)C[C@]12C`, the T/C under setting [1] was 112 % of control; the T/C under setting [2] is 104 % of control; the T/C under setting [3] is 116 % of control; the T/C under setting [11] was 100 % of control; the T/C under setting [12] was 111 % of control.

As to `CC(=O)OC(C)(C(=O)/C=C/C(C)(C)O)C1C(O)CC2(C)C3CC=C4C(C=C(O)C(=O)C4(C)C)C3(C)C(=O)CC12C` (stereo not drawn), the T/C is, setting by setting: (dose: 0.25 mg/kg/injection, schedule: Q01DX010 (ip), vehicle: carboxymethylcellulose (CMC)) 100 % of control; (dose: 0.5 mg/kg/injection, schedule: Q01DX010 (ip), vehicle: carboxymethylcellulose (CMC)) 96 % of control; (dose: 1.0 mg/kg/injection, schedule: Q01DX010 (ip), vehicle: carboxymethylcellulose (CMC)) 98 % of control; (dose: 2.0 mg/kg/injection, schedule: Q01DX010 (ip), vehicle: carboxymethylcellulose (CMC)) 117 % of control; (dose: 4.0 mg/kg/injection, schedule: Q01DX010 (ip), vehicle: carboxymethylcellulose (CMC)) 105 % of control.

Consider `CC(C)C1(C(C)C)OCCO1`, for which the T/C reads like this: under setting [13], 87 % of control; under setting [9], 108 % of control; under setting [10], 100 % of control.

On to `COC1C(OC(=O)/C=C/C=C/C=C/C=C\C(=O)O)CCC2(CO2)C1C1(C)OC1CC=C(C)C` (stereo not drawn), for which the T/C was 110 % of control under setting [13], 105 % of control under setting [9] and 110 % of control under setting [10].
